In US20240174744A1, “METHODS OF TREATMENT USING PROTEIN BINDERS TO IRHOM2 EPITOPES” (SCIRHOM GMBH, priority 2021, published 2024):

Tested on: PMA-induced release of HB-EGF from PBMCs from healthy donors
Assay: ELISA-based HB-EGF release assay, PBMCs from healthy donors
Type: cell-based
Settings: Homo sapiens, PBMC; recombinant murine antibodies 1 μg/ml; Batimastat 10 μM; PMA 25 ng/ml, 6 hours
Description: In the following study, ELISA-based HB-EGF release assays were performed to analyze the inhibitory effects of the antibodies of the present disclosure on PMA-induced release of endogenous HB-EGF from primary human material obtained from healthy donors using peripheral blood mononuclear cells (PBMCs).
In brief, on day 1, Nunc black MaxiSorp® 96-well plates (Thermo Fisher Scientific, USA) were coated overnight with 100 μl per well of mouse anti-human HB-EGF capture antibody (provided as part of the DuoSet ELISA kit) at 4 μg/ml TBS at 4° C. On day 2, the capture antibody solution was removed and MaxiSorp® plates were blocked with 300 μl per well of TBS, 1% BSA at room temperature for 3 hours. […] Using an infinite M1000 (Tecan Group, Switzerland) microplate reader, the fluorescence of each well was collected at an excitation wavelength of 435 nm and an emission wavelength of 555 nm.

Structure (SMILES): CNC(=O)[C@H](Cc1ccccc1)NC(=O)[C@H](CC(C)C)[C@H](CSc1cccs1)C(=O)NO [Batimastat]
- inhibition at 10 µM: 94.9%
